Read-outs that look alike come from different tables or passages of the source.
Key:
bovine trypsin [1] = target: T1, bovine trypsin (Bos taurus, UniProt P00760); experiment: Inactivation rate of bovine trypsin, incubation method; format: biochemical; conditions: Table II; 0.13 μM trypsin, 0.25-42 μM inhibitor, 80 mM Hepes pH 7.5, 1 mM CaCl2, 8% DMSO, 25° C.; NI = no inhibition
T1 sequence (P00760 24-246): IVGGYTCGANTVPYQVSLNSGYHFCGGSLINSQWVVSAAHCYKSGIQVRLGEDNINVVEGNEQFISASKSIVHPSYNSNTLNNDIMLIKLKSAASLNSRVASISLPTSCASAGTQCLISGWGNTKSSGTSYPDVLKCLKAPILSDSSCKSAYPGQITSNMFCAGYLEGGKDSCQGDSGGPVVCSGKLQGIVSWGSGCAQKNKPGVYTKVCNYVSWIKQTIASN
Method in brief: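 Incubation method: trypsin pre-incubated with inhibitor (0.25-42 μM) at 25° C in 80 mM Hepes, 1 mM CaCl2, pH 7.5, 8% DMSO; aliquots withdrawn over time for residual activity on Z-Arg-SBzl thioester with DTNB or 4,4'-dithiodipyridine. Pseudo-first-order kobs from ln vt/vo versus time.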

human thrombin = target: T2, human thrombin (Homo sapiens, UniProt P00734); format: biochemical; conditions: 25° C., NI = no inhibition
T2 construct: bovine trypsin, human thrombin
Method in brief: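 Irreversible inactivation followed by incubation method at 25 °C: 0.07 μM thrombin with 0.25–42 μM inhibitor in 80 mM Hepes pH 7.5, 428 mM NaCl, 8% DMSO. Residual activity of withdrawn aliquots measured with thioester or 4-nitroanilide substrates; kobs from pseudo-first-order fits.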

factor Xa = target: T3, factor Xa (Homo sapiens, UniProt P00742); experiment: Inactivation rate of factor Xa, incubation method; format: biochemical; conditions: Table II; 0.42 μM factor Xa, 66 μM inhibitor, 80 mM Hepes pH 7.5, 428 mM NaCl, 8% DMSO, 25° C.
T3 construct: human thrombin, factor Xa, plasmin
Protocol: (§1) Inactivation rates of serine proteases by aryl diesters of peptidyl derivatives of α-aminoalkylphosphonates were measured by the incubation method. An aliquot of inhibitor (25 or 50 μl) in Me2 SO was added to a buffered enzyme solution (0.01-2.3 μM) to initiate the inactivation. Aliquots (50 μl) were withdrawn at various intervals and the residual enzymatic activity was measured. Me2 SO concentration in the reaction mixture was 8-12% (v/v). A 0.1 M HEPES, 0.01 M CaCl2, pH 7.5 buffer was utilized for trypsin and trypsin-like enzymes. A 0.1 M HEPES, 0.5 M NaCl, pH 7.5, was utilized for the other serine proteases. Peptide thioesters or peptide nitroanilides with the appropriate sequences were used as substrates for various serine proteases. All peptide thioesters hydrolysis rates were measured with the assay mixture containing 4,4'-dithiodipyridine {ε324 =19800 M^-1 cm^-1; Grasetti & Murray, Arch. Biochem. Biophys. 1967, 119, 41-48}. Peptide 4-nitroanilide hydrolysis was measured at 410 nm {ε410 =8800 M^-1 cm^-1; Erlanger et al., Arch. Biochem. Biophys. 1961, 95, 271-278}. First order inactivation rate constants (Kobs) were obtained from plots of In vt /vo vs time, and the correlation coefficients were greater then 0.98.
^a Enzyme was incubated with the inhibitor in 250 μL of the proper
NaCl, 0.8 mM Mes, 9% glycerol and 8% DMSO; 0.42 μM factor Xa, 66 μM
inhibitor in an 80 mM Hepes, pH 7.5 buffer containing 428 mM NaCl and 8%
DMSO. Aliquots of 25 μL were withdrawn at various intervals and the
(§2) residual enzymatic activity was measured as described in experimental
(§3) section. The kobs values were calculated from pseudofirst-order

mast cell tryptase = mast cell tryptase (Homo sapiens, UniProt Q15661); experiment: Inactivation rate of mast cell tryptase, incubation method; format: biochemical; conditions: Table III; enzyme 0.06-0.5 μM, inhibitor 0.25-42 μM, 9% DMSO, 25° C.; NI = no inhibition
Method in brief: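 Incubation method at 25 °C: 0.07 μM tryptase with 20–66 μM inhibitor in Hepes pH 7.5 containing heparin, glycerol and DMSO. Aliquots were withdrawn at intervals for residual activity on Z-Arg-SBzl or Z-Lys-SBzl with DTNB. Pseudo-first-order kobs came from ln(vt/v0) versus time.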

plasmin = target: T4, plasmin (Homo sapiens, UniProt P00747); experiment: Inactivation rate of plasmin, incubation method; format: biochemical; conditions: Table III; enzyme 0.06-0.5 μM, inhibitor 0.25-42 μM, 9% DMSO, 25° C.; NI = no inhibition
T4 construct: factor Xa, plasmin, and urokinase
Protocol: as §1
(§4) ^a Enzyme (0.06-0.5 μM) was incubated with the inhibitor (0.25-42
(§5) μM) in 250 μL of the proper buffer containing 9% DMSO at 25°
(§6) C. The final inhibition reaction mixtures are given in the footnote to
(§7) Table 1. Aliquots of 25 μL were withdrawn at various intervals and the
as §2, §3
^b Inhibitor concentration of 0.24 mM.

urokinase = urokinase (Homo sapiens, UniProt P00749); experiment: Inactivation rate of urokinase, incubation method; format: biochemical; conditions: Table III; enzyme 0.06-0.5 μM, inhibitor 0.25-42 μM, 9% DMSO, 25° C.; NI = no inhibition
Protocol: as §1, §4, §5, §6, §7, §2, §3

bovine trypsin [2] = target: T1, bovine trypsin; experiment: Inactivation rate of bovine trypsin, incubation method; format: biochemical; conditions: Table III; enzyme 0.06-0.5 μM, inhibitor 0.25-42 μM, 9% DMSO, 25° C.; NI = no inhibition
[3] = Hydrolysis (stability) in human plasma; format: in vitro ADME
Description: Furthermore, they show excellent stability in human plasma. For example Suc-Val-Pro-Phe^P (OPh)2 has a hydrolysis half-time in human plasma of about 20 hrs. […] Thus they can be used under a variety of conditions. Phosphonates have the additional advantage of being very stable in plasma and will have a high effectiveness in vivo due to their long lifetimes.

[4] = Table II, 0.07 μM thrombin, 0.25-42 μM inhibitor, 80 mM Hepes pH 7.5, 428 mM NaCl, 8% DMSO
[5] = Table III, enzyme 0.06-0.5 μM, inhibitor 0.25-42 μM, 9% DMSO

Chain of mast cell tryptase (Q15661 31-275): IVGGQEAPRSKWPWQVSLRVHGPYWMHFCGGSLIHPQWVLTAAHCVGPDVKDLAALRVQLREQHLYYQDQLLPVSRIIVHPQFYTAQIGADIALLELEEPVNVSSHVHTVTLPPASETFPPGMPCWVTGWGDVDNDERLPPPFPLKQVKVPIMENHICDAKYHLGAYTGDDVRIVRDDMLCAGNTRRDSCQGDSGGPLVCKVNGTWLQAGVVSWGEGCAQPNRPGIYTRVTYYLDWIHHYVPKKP
T4 sequence (P00747 581-810 limits assumed, species assumed): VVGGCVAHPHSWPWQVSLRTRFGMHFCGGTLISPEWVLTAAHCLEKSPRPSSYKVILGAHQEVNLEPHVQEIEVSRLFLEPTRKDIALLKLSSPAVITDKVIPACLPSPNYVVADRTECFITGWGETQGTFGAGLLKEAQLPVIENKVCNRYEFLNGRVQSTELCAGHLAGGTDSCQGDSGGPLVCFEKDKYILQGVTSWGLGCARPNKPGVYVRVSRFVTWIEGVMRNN
T4 sequence (P00747 97-580 partner limits assumed, species assumed): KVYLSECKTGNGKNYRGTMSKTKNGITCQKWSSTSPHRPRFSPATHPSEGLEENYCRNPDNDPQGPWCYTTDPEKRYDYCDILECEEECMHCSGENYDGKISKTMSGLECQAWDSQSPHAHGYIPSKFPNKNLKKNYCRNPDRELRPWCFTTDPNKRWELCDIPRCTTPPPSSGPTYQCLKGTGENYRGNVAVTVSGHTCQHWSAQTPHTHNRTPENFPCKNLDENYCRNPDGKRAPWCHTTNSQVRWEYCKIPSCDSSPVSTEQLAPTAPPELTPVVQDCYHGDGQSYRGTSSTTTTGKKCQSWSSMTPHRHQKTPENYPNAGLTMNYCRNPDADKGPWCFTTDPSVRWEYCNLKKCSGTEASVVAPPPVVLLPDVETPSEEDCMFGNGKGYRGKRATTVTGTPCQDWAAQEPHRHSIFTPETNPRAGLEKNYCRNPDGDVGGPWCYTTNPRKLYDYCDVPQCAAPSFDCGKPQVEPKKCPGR
T3 sequence (P00742 235-488 limits assumed): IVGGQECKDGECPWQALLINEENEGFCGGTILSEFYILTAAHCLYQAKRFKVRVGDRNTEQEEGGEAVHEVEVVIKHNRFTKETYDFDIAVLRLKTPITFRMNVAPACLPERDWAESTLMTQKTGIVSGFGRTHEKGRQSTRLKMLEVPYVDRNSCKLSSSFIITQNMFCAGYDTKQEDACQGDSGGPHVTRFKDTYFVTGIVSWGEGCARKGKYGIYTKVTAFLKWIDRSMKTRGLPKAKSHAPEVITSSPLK
T3 sequence (P00742 41-179 partner limits assumed): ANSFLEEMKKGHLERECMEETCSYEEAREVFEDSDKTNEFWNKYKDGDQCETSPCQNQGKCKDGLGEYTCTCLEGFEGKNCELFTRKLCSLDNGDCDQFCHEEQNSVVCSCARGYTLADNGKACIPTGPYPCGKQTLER

| SMILES | kobs /[I] bovine trypsin (bovine trypsin [1]) | kobs /[I] human thrombin (human thrombin; [4]) | kobs /[I] factor Xa (factor Xa) [M⁻¹ s⁻¹] | kobs /[I] mast cell tryptase (mast cell tryptase) [M⁻¹ s⁻¹] | kobs /[I] human thrombin (human thrombin; [5]) | kobs /[I] plasmin (plasmin) [M⁻¹ s⁻¹] | kobs /[I] urokinase (urokinase) [M⁻¹ s⁻¹] | kobs /[I] bovine trypsin (bovine trypsin [2]) | hydrolysis half-time in human plasma [3] |
| --- | --- | --- | --- | --- | --- | --- | --- | --- | --- |
| CC(C)(C)OC(=O)NC(Cc1ccccc1)C(=O)NCC(=O)NC(c1ccc(C(=N)N)cc1)P(=O)(Oc1ccccc1)Oc1ccccc1 (mixture of isomers) [Boc--D--Phe--Gly-(4-AmPhGly)^P (OPh)2] | 6,620 ± 835 M^-1 s^-1 | 2,225 ± 106 M^-1 s^-1 | 2.8 ± 0 | – | – | – | – | – | – |
| N=C(N)c1ccc(C(NC(=O)CNC(=O)C(CCC(=O)O)NC(=O)OCc2ccccc2)P(=O)(Oc2ccccc2)Oc2ccccc2)cc1 (mixture of isomers) [Cbz--Glu--Gly-(4-AmPhGly)^P (OPh)2] | 70 ± 5 M⁻¹ s⁻¹ | 46 ± 5 M⁻¹ s⁻¹ | 1.4 ± 0.1 | – | – | – | – | – | – |
| CC(C)CC(NC(=O)C(Cc1ccccc1)NC(=O)OC(C)(C)C)C(=O)NC(c1ccc(C(=N)N)cc1)P(=O)(Oc1ccccc1)Oc1ccccc1 (mixture of isomers) [Boc--D--Phe--Leu-(4-AmPhGly)^P (OPh)2] | 24 ± 2 M⁻¹ s⁻¹ | 921 ± 44 M⁻¹ s⁻¹ | 1.4 ± 0.4 | – | – | – | – | – | – |
| CC(C)CC(N)C(=O)NC(CC(=O)O)C(=O)N1CCCC1C(=O)NC(c1ccc(C(=N)N)cc1)P(=O)(Oc1ccccc1)Oc1ccccc1 (mixture of isomers) [Leu--Asp--Pro-(4-AmPhGly)^P (OPh)2] | 204 ± 19 M⁻¹ s⁻¹ | 65 ± 1 M⁻¹ s⁻¹ | 1.3 ± 0.2 | – | – | – | – | – | – |
| CC(C)CC(NC(=O)OC(C)(C)C)C(=O)NCC(=O)NC(c1ccc(C(=N)N)cc1)P(=O)(Oc1ccccc1)Oc1ccccc1 (mixture of isomers) [Boc--D--Leu--Gly-(4-AmPhGly)^P (OPh)2] | 2,960 ± 300 M^-1 s^-1 | 1,187 ± 76 M^-1 s^-1 | 10 ± 0.4 | – | – | – | – | – | – |
| CC(C)CC(NC(=O)OC(C)(C)C)C(=O)NC(CC(=O)OC(C)(C)C)C(=O)N1CCCC1C(=O)NC(c1ccc(C(=N)N)cc1)P(=O)(Oc1ccccc1)Oc1ccccc1 (mixture of isomers) [Boc--Leu--Asp(O-t-Bu)--Pro-(4-AmPhGly)^P (OPh)2] | 670 ± 53 M⁻¹ s⁻¹ | 502 ± 21 M⁻¹ s⁻¹ | 8 ± 1 | – | – | – | – | – | – |
| CC(C)(C)OC(=O)NC(CO)C(=O)NC(c1ccc(C(=N)N)cc1)P(=O)(Oc1ccccc1)Oc1ccccc1 (mixture of isomers) [Boc--Ser-(4-AmPhGly)^P (OPh)2] | 20 ± 1 M⁻¹ s⁻¹ | 31 ± 2 M⁻¹ s⁻¹ | 3.5 ± 0.4 | – | – | – | – | – | – |
| Cl.NCCCCC(NC(=O)[C@@H]1CCCN1C(=O)c1ccccc1Oc1ccccc1)P(=O)(Oc1ccccc1)Oc1ccccc1 (stereo partly shown) [2-Phenoxybenzoyl-Pro--Lys^P (OPh)2, Diphenyl 1-(N-(2-Phenoxybenzoylprolyl)amino)-5-aminopentanephosphonate Hydrochloride] | – | – | – | 19 ± 1 | 4,531 ± 140 M^-1 s^-1 | 7.1 ± 0.2 | 0.6 ± 0.1 | 16,411 ± 460 M^-1 s^-1 | – |
| CC(C)[C@H](NC(=O)CCC(=O)O)C(=O)N1CCC[C@H]1C(=O)NC(Cc1ccccc1)P(=O)(Oc1ccccc1)Oc1ccccc1 (stereo partly drawn) [Suc-Val-Pro-Phe^P (OPh)2] | – | – | – | – | – | – | – | – | about 20 hrs |
| NCCCCC(NC(=O)[C@@H]1CCCN1C(=O)CC(c1ccccc1)c1ccccc1)P(=O)(Oc1ccccc1)Oc1ccccc1 (stereo partly shown) [3,3-Diphenylpropanoyl-Pro--Lys^P (OPh)2] | – | – | – | 74 ± 9 | 27,450 ± 803 M^-1 s^-1 | 7.0 ± 0.2 | 1.5 ± 0.0 | 14,447 ± 905 M^-1 s^-1 | – |
| Cl.NCCCCC(NC(=O)OCc1ccccc1)P(=O)(Oc1ccccc1)Oc1ccccc1 (stereo not shown) [Cbz--Lys^P (OPh)2, Diphenyl N-(N-Benzyloxycarbonyl)amino(4-aminobutyl)methanephosphonate Hydrochloride] | – | – | – | 17 ± 1 | 17 M⁻¹ s⁻¹ | 8.2 ± 0.4 | 15 ± 2 | 6,235 M^-1 s^-1 | – |
| Cl.NCCCCCC(NC(=O)[C@@H]1CCCN1C(=O)c1cccc(Oc2ccccc2)c1)P(=O)(Oc1ccccc1)Oc1ccccc1 (stereo partly shown) [3-Phenoxybenzoyl-Pro-HomoLys^P (OPh)2, Diphenyl 1-(N-(3-Phenoxybenzoylprolyl)amino)-6-aminohexanephosphonate Hydrochloride] | – | – | – | 10 ± 3 | 27 ± 5 M⁻¹ s⁻¹ | 4.6 ± 0.1 | 22 ± 1 | 116 ± 34 M⁻¹ s⁻¹ | – |
| NCCCCCC(NC(=O)C1CCCN1C(=O)CNS(=O)(=O)Cc1ccccc1)P(=O)(Oc1ccccc1)Oc1ccccc1 (mixture of isomers) [PhCH2 SO2 Gly--Pro-HomoLys^P (OPh)2] | – | – | – | 32 ± 2 | 137 ± 12 M⁻¹ s⁻¹ | 8.4 ± 0.2 | 38 ± 3 | 528 ± 59 M⁻¹ s⁻¹ | – |
| Cl.NCCCCC(NC(=O)[C@@H]1CCCN1C(=O)c1cccc(Oc2ccccc2)c1)P(=O)(Oc1ccccc1)Oc1ccccc1 (stereo partly shown) [3-Phenoxybenzoyl-Pro--Lys^P (OPh)2, Diphenyl 1-(N-(3-Phenoxybenzoylprolyl)amino)-5-aminopentanephosphonate Hydrochloride] | – | – | – | 16 ± 1 | 1,142 ± 52 M^-1 s^-1 | 7.4 ± 0.6 | 1.6 ± 0.1 | 19,380 ± 300 M^-1 s^-1 | – |

— US5952307A, “Basic α-aminoalkylphosphonate derivatives” (priority 1997, dated 1999)
